SMILES strings stand for the structures.

In data set [1] the test system is Oryza sativa, (L.) Tebonnet. In words: Rice tolerance to post-transplant applications under flooded paddy conditions (Example 187), ORYSAT (Rice, Tebonnet). For herbicidal effect rating ORYSAT: meaning of each grade not given here. The note with it: rated three to four weeks after treatment.
The subject of another data set is Sagittaria pygmaea, L. In words: Preemergence weed control under flooded paddy conditions, SAGPY (Arrowhead (Pygmaea)). For herbicidal effect rating, SAGPY: meaning of each grade not given here. It is filed as in vivo. The note with it: flooded paddy, rated three to four weeks after treatment.
For data set [2], the system named is Echinochloa oryzoides (Ard.) Fritsch. Description: Preemergence weed control under flooded paddy conditions, ECHORC (Watergrass (Calif.)). For herbicidal effect rating, ECHORC: meaning of each grade not given here. It counts as in vivo. The note with it: flooded paddy, rated three to four weeks after treatment.
The test system of another data set is Cyperus iria. Description: Preemergence weed control under flooded paddy conditions, CYPIR (Rice Flatsedge). For herbicidal effect rating, CYPIR: meaning of each grade not given here. It is filed as in vivo. The settings on record: flooded paddy, rated three to four weeks after treatment.
The test system of data set [3] is Cyperus serotinus, Rottb. In words: Preemergence weed control under flooded paddy conditions, CYPSE (Flatsedge). Note: meaning of each grade not given here. The settings on record: preemergence weeds, rated three to four weeks after treatment. It is filed as in vivo.
The subject of data set [4] is Monochoria vaginalis, Presl. Description: Preemergence weed control under flooded paddy conditions, MOOVA (Monochoria). It counts as in vivo. The settings on record: preemergence, flooded paddy, rated three to four weeks after treatment.
Where [5] appears, read: Rate 0.0320 kg/ha, preemergence weeds.
[6] abbreviates: Rate 0.0620 kg/ha, preemergence weeds.
[7] abbreviates: Rate 0.1250 kg/ha, preemergence weeds.
[8] abbreviates: Rate 0.2500 kg/ha, preemergence weeds.
[9] abbreviates: Rate 0.0320 kg/ha, preemergence.
Where [10] appears, read: Rate 0.0620 kg/ha, preemergence.
[11] abbreviates: Rate 0.1250 kg/ha, preemergence.
Where [12] appears, read: Rate 0.2500 kg/ha, preemergence.
Where [13] appears, read: Rate 0.5000 kg/ha, preemergence.

For the compound `Cn1c(C(F)(F)F)cc(=O)n(-c2ccc3snc(C(=O)NS(=O)(=O)CCl)c3c2)c1=O` [Example 334, 1,2-Benzisothiazole-3-carboxamide, N-[(chloromethyl)sulfonyl]-5-[3,6-dihydro-3-methyl-2,6-dioxo-4-(trifluoromethyl)-1(2H)-pyrimidinyl]-], the “herbicidal effect rating ORYSAT” value came to 0.0 in data set [1] (Rate 0.0320 kg/ha), 0.0 in data set [1] (Rate 0.0620 kg/ha), 3.0 in data set [1] (Rate 0.1250 kg/ha) and 3.0 in data set [1] (Rate 0.2500 kg/ha). Moreover, the “herbicidal effect rating, SAGPY” value in the data set on Sagittaria pygmaea, L. (setting [5]) was determined as 0.0; in the data set with Sagittaria pygmaea, L. (setting [6]), 0.0; with Sagittaria pygmaea, L. (setting [7]), 4.0; in the data set on Sagittaria pygmaea, L. (setting [8]), 4.0. For the same compound, the “herbicidal effect rating, ECHORC” value in data set [2] (setting [5]) is given as 0.0; in data set [2] (setting [6]) it was 0.0; in data set [2] (setting [7]) it was 0.0; in data set [2] (setting [8]) it was 3.0. The “herbicidal effect rating, CYPIR” value with Cyperus iria (setting [5]) stood at 3.0; in the data set with Cyperus iria (setting [6]) it was 5.0; in the data set with Cyperus iria (setting [7]), 6.0; in the data set with Cyperus iria (setting [8]), 6.0. For the same compound, the “herbicidal effect rating, CYPSE” value came to 0.0 in data set [3] (Rate 0.0320 kg/ha), 0.0 in data set [3] (Rate 0.0620 kg/ha), 2.0 in data set [3] (Rate 0.1250 kg/ha) and 2.0 in data set [3] (Rate 0.2500 kg/ha).

For `CC(Oc1ccccc1-c1nsc2ccc(-n3c(=O)cc(C(F)(F)F)n(C)c3=O)cc12)C(=O)NS(C)(=O)=O` (stereo not drawn) [Example 335, Propionamide, 2-{o-{5-[3,6-dihydro-3-methyl-2,6-dioxo-4-(trifluoromethyl)-1(2H)-pyrimidinyl]-1,2-benzisothiazol-3-yl}phenoxy}-N-(methylsulfonyl)-], the “herbicidal effect rating ORYSAT” value in data set [1] (Rate 0.0320 kg/ha) turned out to be 3.0; in data set [1] (Rate 0.0620 kg/ha) it was 4.0; in data set [1] (Rate 0.1250 kg/ha) it was 5.0; in data set [1] (Rate 0.2500 kg/ha) it was 7.0. Also, the “herbicidal effect rating, SAGPY” value in the data set with Sagittaria pygmaea, L. (setting [5]) turned out to be 0.0; in the data set with Sagittaria pygmaea, L. (setting [6]), 0.0; with Sagittaria pygmaea, L. (setting [7]), 4.0; with Sagittaria pygmaea, L. (setting [8]) it was 4.0. The “herbicidal effect rating, ECHORC” value in data set [2] (setting [5]) is reported as 6.0; in data set [2] (setting [6]), 7.0; in data set [2] (setting [7]), 7.0; in data set [2] (setting [8]) it was 9.0. In addition, the “herbicidal effect rating, CYPIR” value amounted to 0.0 in the data set on Cyperus iria (setting [5]), 0.0 with Cyperus iria (setting [6]), 2.0 in the data set with Cyperus iria (setting [7]) and 2.0 with Cyperus iria (setting [8]). Also, the “herbicidal effect rating, CYPSE” value is listed as 0.0 in data set [3] (Rate 0.0320 kg/ha), 0.0 in data set [3] (Rate 0.0620 kg/ha), 6.0 in data set [3] (Rate 0.1250 kg/ha) and 6.0 in data set [3] (Rate 0.2500 kg/ha).

As to `Cn1c(C(F)(F)F)cc(=O)n(-c2ccc3snc(C(=O)CBr)c3c2)c1=O` [Example 337, 2,4(1H,3H)-Pyrimidinedione, 3-[3-(bromoacetyl)-1,2-benzisothiazol-5-yl]-1-methyl-6-(trifluoromethyl)-], the “herbicidal effect rating ORYSAT” value in data set [1] (Rate 0.0320 kg/ha), in data set [1] (Rate 0.0620 kg/ha), in data set [1] (Rate 0.1250 kg/ha) and in data set [1] (Rate 0.2500 kg/ha) was 3.0 throughout. For the same compound, the “herbicidal effect rating, SAGPY” value in the data set with Sagittaria pygmaea, L. (setting [5]) came to 0.0; with Sagittaria pygmaea, L. (setting [6]), 0.0; with Sagittaria pygmaea, L. (setting [7]) it was 0.0; in the data set with Sagittaria pygmaea, L. (setting [8]), 3.0. The “herbicidal effect rating, ECHORC” value in data set [2] (setting [5]) came out at 2.0; in data set [2] (setting [6]), 2.0; in data set [2] (setting [7]) it was 6.0; in data set [2] (setting [8]) it was 6.0. The “herbicidal effect rating, CYPIR” value came to 0.0 with Cyperus iria (setting [5]), 0.0 with Cyperus iria (setting [6]), 6.0 in the data set on Cyperus iria (setting [7]) and 9.0 in the data set on Cyperus iria (setting [8]). Also, the “herbicidal effect rating, CYPSE” value is listed as 0.0 in data set [3] (Rate 0.0320 kg/ha), 0.0 in data set [3] (Rate 0.0620 kg/ha), 0.0 in data set [3] (Rate 0.1250 kg/ha) and 9.0 in data set [3] (Rate 0.2500 kg/ha).

As for `COc1ccc(O)c(-c2nsc3ccc(-n4c(=O)cc(C(F)(F)F)n(C)c4=O)cc23)c1` [Example 361, 2,4(1H,3H)-Pyrimidinedione, 3-[3-(2-hydroxy-5-methoxyphenyl)-1,2-benzisothiazol-5-yl]-1-methyl-6-(trifluoromethyl)-], the “herbicidal effect rating ORYSAT” value in data set [1] (Rate 0.0320 kg/ha) is 0.0; in data set [1] (Rate 0.0620 kg/ha) it was 0.0; in data set [1] (Rate 0.1250 kg/ha), 4.0; in data set [1] (Rate 0.2500 kg/ha), 5.0; in data set [1] (Rate 0.5000 kg/ha) it was 3.0. Also, the “herbicidal effect rating, SAGPY” value in the data set with Sagittaria pygmaea, L. (setting [9]) worked out at 4.0; with Sagittaria pygmaea, L. (setting [10]) it was 4.0; with Sagittaria pygmaea, L. (setting [11]), 5.0; in the data set on Sagittaria pygmaea, L. (setting [12]) it was 5.0; in the data set on Sagittaria pygmaea, L. (setting [13]), 5.0. Further, the “herbicidal effect rating, ECHORC” value in data set [2] (setting [9]) is 0.0; in data set [2] (setting [10]), 0.0; in data set [2] (setting [11]), 0.0; in data set [2] (setting [12]), 4.0; in data set [2] (setting [13]), 4.0. Also, the “herbicidal effect rating, CYPIR” value in the data set on Cyperus iria (setting [9]) stood at 0.0; in the data set with Cyperus iria (setting [10]), 0.0; in the data set on Cyperus iria (setting [11]) it was 0.0; in the data set with Cyperus iria (setting [12]), 6.0; in the data set with Cyperus iria (setting [13]), 6.0. The “herbicidal effect rating, MOOVA” value in data set [4] (Rate 0.0320 kg/ha), in data set [4] (Rate 0.0620 kg/ha), in data set [4] (Rate 0.1250 kg/ha), in data set [4] (Rate 0.2500 kg/ha) and in data set [4] (Rate 0.5000 kg/ha) was 9.0 in each case.

Turning to `Cn1c(C(F)(F)F)cc(=O)n(-c2cc3c(C(=O)NS(=O)(=O)Cc4ccccc4)nsc3cc2F)c1=O` [Example 482, 1,2-Benzisothiazole-3-carboxamide, N-(benzylsulfonyl)-5-[3,6-dihydro-3-methyl-2,6-dioxo-4-(trifluoromethyl)-1(2H)-pyrimidinyl]-6-fluoro-], the “ORYSAT herbicidal rating (rice tolerance)” value in data set [1] (0.0320 kg/ha) is 0.0; in data set [1] (0.0620 kg/ha), 2.0; in data set [1] (0.1250 kg/ha) it was 6.0; in data set [1] (0.2500 kg/ha), 7.0. Moreover, the SAGPY herbicidal rating in the data set on Sagittaria pygmaea, L. (0.0320 kg/ha, preemergence) is on record as 3.0; in the data set with Sagittaria pygmaea, L. (0.0620 kg/ha, preemergence), 4.0; in the data set with Sagittaria pygmaea, L. (0.1250 kg/ha, preemergence) it was 5.0; in the data set on Sagittaria pygmaea, L. (0.2500 kg/ha, preemergence), 7.0. Also, the ECHORC herbicidal rating in data set [2] (0.0320 kg/ha, preemergence) was 4.0; in data set [2] (0.0620 kg/ha, preemergence) it was 7.0; in data set [2] (0.1250 kg/ha, preemergence), 9.0; in data set [2] (0.2500 kg/ha, preemergence), 9.0. Also, the CYPIR herbicidal rating in the data set with Cyperus iria (0.0320 kg/ha, preemergence) was 0.0; with Cyperus iria (0.0620 kg/ha, preemergence), 0.0; with Cyperus iria (0.1250 kg/ha, preemergence) it was 0.0; in the data set on Cyperus iria (0.2500 kg/ha, preemergence), 6.0. Further, the MOOVA herbicidal rating in data set [4] (0.0320 kg/ha) stood at 4.0; in data set [4] (0.0620 kg/ha), 5.0; in data set [4] (0.1250 kg/ha), 6.0; in data set [4] (0.2500 kg/ha) it was 7.0.

The record behind these values is patent publication EP0908457B1, “3-(1,2-benzisothiazol- and isoxazol-5-Y1)-2,4(1H,3H)-pyrimidinedione or thione and 3-(1,2-benzisothiazol- and isoxazol-5-y1)-4(3H)-pyrimidinone or thione herbicidal agents” (BASF AKTIENGESELLSCHAFT, priority 1997, dated 1999).
